Measurements reported in US5856309A, “Amidinopyrroline derivatives, processes for their production and pharmaceutical agents containing these compounds” (Boehringer Mannheim GmbH, priority 1997, dated 1999).
pIC50, pKi: −log10 of the molar value.

Assays:
[1] = target: isolated activated GpIIb/IIIa receptor (Homo sapiens, UniProt P05106+P08514); assay: GpIIb/IIIa fibrinogen Elisa; conditions: inhibition of fibrinogen binding to coated GpIIb/IIIa receptor, optical density at 405 nm
Procedure: The GpIIb/IIIa fibrinogen Elisa is a modification of assays which are described in the following literature: Nachman, R. L. & Leung, L. L. K. (1982): J. Clin. Invest. 69: 263-269 and Wright, P. S. et al. (1993): Biochem. J. 293:263-267.
Microtiter plates were coated overnight with 2 μg/ml isolated activated GpIIb/IIIa receptor. After unbound receptor had been removed by washing several times the surface of the plates is blocked with 1% casein and it is washed again. The test substance is added at the required concentrations and the plates are incubated for 10 minutes while shaking. The natural ligand of the gpIIb/IIIa receptor, fibrinogen, is added. After incubating for 1 hour unbound fibrinogen is removed by washing several times and the bound fibrinogen is determined by means of a peroxidase-conjugated, anti-fibrinogen monoclonal antibody by measuring the optical density at 405 nm in an ELISA instrument. The inhibition of a fibrinogen-GpIIb/IIIa interaction results in a low optical density. The IC50 value was determined by a concentration/effect curve.

horse thrombin = assay: Thrombin time in citrate plasma (sphere coagulometer); assay type: biochemical; conditions: citrate plasma of healthy donors, 37° C., control ca. 24 seconds
Procedure: A common test in clinical coagulation diagnostics is the thrombin time. This parameter detects the action of thrombin on fibrinogen and the formation of blood clots. Inhibitors of thrombin result in an increased thrombin time.
In order to obtain plasma 9 parts fresh blood from healthy donors are mixed with one part sodium citrate solution (0.11 mol/l) and centrifuged at ca. 3000 rpm for 10 min at room temperature. The plasma was removed by pipette and can be stored for ca. 8 h at room temperature.
200 ul citrate plasma was incubated for 2 min at 37° C. in a sphere coagulometer (KC10 from the Amelung Company). 10 ul dimethylsulfoxide (DMSO) or a solution of the active substance in DMSO was added to 190 ul preheated thrombin reagent (Boehringer Mannheim, GmbH; contains ca. 3 U/ml horse thrombin and 0.0125M Ca2+). A stopwatch was started when this 200 ul solution was added to the plasma and the time point at which coagulation starts was determined. […] [* the experiment was stopped after 5 minutes.]

[2] = target: T1, bovine pancreatic trypsin (Bos taurus, UniProt P00760); assay: Inhibition of trypsin, kinetic measurement as described for thrombin; assay type: biochemical; conditions: measured as described for thrombin, read-out: inhibition constant Ki (trypsin)
T1 construct: purchased Sigma
T1 sequence (P00760 24-246): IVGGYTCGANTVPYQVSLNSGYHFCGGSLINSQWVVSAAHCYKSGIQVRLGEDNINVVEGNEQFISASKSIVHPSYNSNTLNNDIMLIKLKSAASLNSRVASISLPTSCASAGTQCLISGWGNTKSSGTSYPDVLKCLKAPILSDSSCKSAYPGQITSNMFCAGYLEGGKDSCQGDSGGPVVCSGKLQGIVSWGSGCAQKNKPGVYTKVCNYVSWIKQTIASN
Procedure: The kinetic measurements were carried out in 0.1M phosphate buffer which contained 0.2M sodium chloride and 0.5% polyethylene glycol 6000 at a pH=7.5 and 25° C. using the substrate H-(D)-Phe-Pro-Arg-pNA (S-2238 Kabi) and human thrombin (Sigma, specific activity=2150 NIH units/mg) in polystyrene semimicro-cuvettes in a total volume of 1 ml.
For this the reaction was started first by adding 0.03 NIH units thrombin to a 100 μM solution of the substrate and the active substance. In a second experiment substrate was added to a solution of thrombin and the active substance which had been incubated for 5 min. The increase of the concentration of p-nitro-anilide with time was monitored spectrophotometrically for 12 min at 405 nm (UV-VIS spectrophotometer Lambda-2 from the Perkin-Elmer Company). […] The inhibition constant Ki was determined as follows. […] The increase in absorbance at 405 nm caused by the formation of p-nitroanilide was monitored for a time period of 12 min. Measurement points (time versus absorbance) were transferred to a PC at intervals of 20 sec. The rates Vo (changes in absorbance per see; measurements without inhibitor) and Vi (measurements with inhibitor) were determined from the data by linear regression. […] From one measurement series (constant inhibitor concentration, variable substrate concentrations) Km' and Vmax were determined by a non-linear fit to the equation [formula] […]

isolated activated GpIIb/IIIa receptor, sequence (P08514 32-887 limits assumed): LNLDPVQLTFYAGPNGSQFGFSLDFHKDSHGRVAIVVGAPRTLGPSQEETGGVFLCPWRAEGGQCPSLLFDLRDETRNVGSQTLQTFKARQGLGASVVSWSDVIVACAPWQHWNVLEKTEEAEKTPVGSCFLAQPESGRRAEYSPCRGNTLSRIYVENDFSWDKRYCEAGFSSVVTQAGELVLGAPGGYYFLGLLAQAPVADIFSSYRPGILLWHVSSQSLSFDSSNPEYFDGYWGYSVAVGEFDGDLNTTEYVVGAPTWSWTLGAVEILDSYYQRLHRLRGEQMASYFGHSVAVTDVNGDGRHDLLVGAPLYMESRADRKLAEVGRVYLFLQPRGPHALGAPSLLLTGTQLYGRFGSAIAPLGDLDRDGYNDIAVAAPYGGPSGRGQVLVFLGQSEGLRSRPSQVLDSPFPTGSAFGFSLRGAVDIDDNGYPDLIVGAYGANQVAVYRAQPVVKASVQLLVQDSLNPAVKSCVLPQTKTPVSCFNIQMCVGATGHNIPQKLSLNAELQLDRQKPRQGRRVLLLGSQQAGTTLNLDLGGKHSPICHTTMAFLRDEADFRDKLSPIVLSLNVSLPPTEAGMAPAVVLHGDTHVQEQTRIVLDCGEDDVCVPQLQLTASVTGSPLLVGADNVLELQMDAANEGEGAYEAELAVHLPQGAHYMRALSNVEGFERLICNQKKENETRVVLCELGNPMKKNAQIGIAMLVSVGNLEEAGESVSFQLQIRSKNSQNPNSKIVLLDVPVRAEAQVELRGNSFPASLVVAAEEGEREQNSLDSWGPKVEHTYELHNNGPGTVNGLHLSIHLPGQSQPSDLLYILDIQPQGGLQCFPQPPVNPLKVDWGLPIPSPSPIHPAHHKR
isolated activated GpIIb/IIIa receptor, sequence (P08514 891-1039 partner limits assumed): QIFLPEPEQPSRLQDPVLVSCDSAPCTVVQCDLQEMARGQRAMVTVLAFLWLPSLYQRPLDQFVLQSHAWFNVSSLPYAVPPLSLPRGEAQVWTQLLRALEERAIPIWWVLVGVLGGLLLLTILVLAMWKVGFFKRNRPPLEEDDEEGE
isolated activated GpIIb/IIIa receptor, sequence (P05106 27-788): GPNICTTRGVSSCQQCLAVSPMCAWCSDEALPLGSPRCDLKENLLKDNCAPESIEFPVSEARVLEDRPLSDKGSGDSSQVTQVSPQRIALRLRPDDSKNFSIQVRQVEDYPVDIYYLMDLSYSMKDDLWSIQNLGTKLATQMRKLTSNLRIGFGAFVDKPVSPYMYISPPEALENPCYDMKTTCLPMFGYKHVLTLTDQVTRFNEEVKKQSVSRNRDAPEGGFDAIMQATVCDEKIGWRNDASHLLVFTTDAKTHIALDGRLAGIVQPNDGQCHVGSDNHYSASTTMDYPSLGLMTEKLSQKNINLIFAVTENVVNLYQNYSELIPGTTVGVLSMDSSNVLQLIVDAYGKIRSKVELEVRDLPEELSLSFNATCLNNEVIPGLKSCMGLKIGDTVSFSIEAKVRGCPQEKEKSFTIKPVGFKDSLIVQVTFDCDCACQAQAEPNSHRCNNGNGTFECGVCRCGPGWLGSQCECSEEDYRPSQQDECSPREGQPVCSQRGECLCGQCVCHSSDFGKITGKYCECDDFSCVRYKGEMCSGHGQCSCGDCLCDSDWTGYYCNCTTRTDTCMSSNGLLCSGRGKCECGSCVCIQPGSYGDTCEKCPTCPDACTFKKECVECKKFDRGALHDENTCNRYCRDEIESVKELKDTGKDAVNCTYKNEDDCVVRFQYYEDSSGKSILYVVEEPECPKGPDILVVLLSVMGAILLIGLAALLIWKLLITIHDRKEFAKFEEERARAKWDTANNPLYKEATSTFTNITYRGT

| Molecule | pIC50 [1] | also measured |
| --- | --- | --- |
| N=C(N)N1CC=C(CC(NC(=O)OCC(Cl)(Cl)Cl)C(=O)NCC(=O)N[C@@H](CC(=O)O)C(=O)N[C@@H](CO)C(=O)O)C1 (stereo partly drawn) [Example 7, Troc-Ada-Gly-Asp-Ser] | 4.84 |  |
| N=C(N)N1CC=C(CC(NC(=O)OCC(Cl)(Cl)Cl)C(=O)NCC(=O)N[C@@H](CC(=O)O)C(=O)N[C@@H](Cc2c[nH]c3ccccc23)C(=O)O)C1 (stereo partly drawn) [Example 8, Troc-Ada-Gly-Asp-Trp] | 6.40 |  |
| N=C(N)N1CC=C(CC(NC(=O)OCC(Cl)(Cl)Cl)C(=O)NCC(=O)N[C@@H](CC(=O)O)C(=O)N[C@@H](Cc2ccccc2)C(=O)O)C1 (stereo partly drawn) [Example 9, Troc-Ada-Gly-Asp-Phe] | 5.64 |  |
| N=C(N)N1CC=C(CC(N)C(=O)NCC(=O)N[C@@H](CC(=O)O)C(=O)N[C@@H](Cc2ccc(O)cc2)C(=O)O)C1 (stereo partly drawn) [Example 10, Ada-Gly-Asp-Tyr] | 5.62 |  |
| D-Pla-D-Phe-L-Choi-Adc [Example 1] |  | increase of thrombin time (horse thrombin; test concentration 3.5 nM): 5 s; increase of thrombin time (horse thrombin; test concentration 34 nM): 65 s; increase of thrombin time (horse thrombin; test concentration 340 nM, experiment stopped after 5 minutes): > 300 s; pKi [2]: 7.00 |
